Consider 18 molecules from patent US20100197724A1, “6.5 -PYRROLOPIPERIDINE TACHYKININ RECEPTOR ANTAGONISTS” (priority 2007, published 2010).

This assay addresses T1, human neurokinin-1 receptor (NK1R) (Homo sapiens, UniProt P25103).
T1 construct: expressed in transfected cells
As to the kind of experiment: 125I-substance P binding assay of human NK1R expressed in COS or CHO cells. Particulars: competition with 125I-substance P. The protocol: Receptor Expression in COS: To express the cloned human neurokinin-1 receptor (NK1R) transiently in COS, the cDNA for the human NK1R was cloned into the expression vector pCDM9 which was derived from pCDM8 (INVITROGEN) by inserting the ampicillin resistance gene (nucleotide 1973 to 2964 from BLUESCRIPT SK+) into the Sac II site. Transfection of 20 ug of the plasmid DNA into 10 million COS cells was achieved by electroporation in 800 ul of transfection buffer (135 mM NaCl, 1.2 mM CaCl2, 1.2 mM MgCl2, 2.4 mM K2HPO4, 0.6 mM KH2PO4, 10 mM glucose, 10 mM HEPES pH 7.4) at 260 V and 950 uF using the IBI GENEZAPPER (IBI, New Haven, Conn.). The cells were incubated in 10% fetal calf serum, 2 mM glutamine, 100 U/ml penicillin-streptomycin, and 90% DMEM media (GIBCO, Grand Island, N.Y.) in 5% CO2 at 37° C. for three days before the binding assay.
Stable Expression in CHO: To establish a stable cell line expressing the cloned human NK1R, the cDNA was subcloned into the vector pRcCMV (INVITROGEN). Transfection of 20 ug of the plasmid DNA into CHO cells was achieved by electroporation in 800 ul of transfection buffer supplemented with 0.625 mg/ml Herring sperm DNA at 300 V and 950 uF using the IBI GENEZAPPER (IBI). The transfected cells were incubated in CHO media [10% fetal calf serum, 100 U/ml penicillin-streptomycin, 2 mM glutamine, 1/500 hypoxanthine-thymidine (ATCC), 90% IMDM media (JRH BIOSCIENCES, Lenexa, Kans.), 0.7 mg/ml G418 (GIBCO)] in 5% CO2 at 37° C. until colonies were visible. Each colony was separated and propagated. The cell clone with the highest number of human NK1R was selected for subsequent applications such as drug screening.
Assay Protocol using COS or CHO: The binding assay of human NK1R expressed in either COS or CHO cells is based on the use of ^125I-substance P (^125I-SP, from DU PONT, Boston, Mass.) as a radioactively labeled ligand which competes with unlabeled substance P or any other ligand for binding to the human NK1R. Monolayer cell cultures of COS or CHO were dissociated by the non-enzymatic solution (SPECIALTY MEDIA, Lavallette, N.J.) and resuspended in appropriate volume of the binding buffer (50 mM Tris pH 7.5, 5 mM MnCl2, 150 mM NaCl, 0.04 mg/ml bacitracin, 0.004 mg/ml leupeptin, 0.2 mg/ml BSA, 0.01 mM phosphoramidon) such that 200 ul of the cell suspension would give rise to about 10,000 cpm of specific ^125I-SP binding (approximately 50,000 to 200,000 cells). In the binding assay, 200 ul of cells were added to a tube containing 20 ul of 1.5 to 2.5 nM of ^125I-SP and 20 ul of unlabeled substance P or any other test compound. The tubes were incubated at 4° C. or at room temperature for 1 hour with gentle shaking. The bound radioactivity was separated from unbound radioactivity by GF/C filter (BRANDEL, Gaithersburg, Md.) which was pre-wetted with 0.1% polyethylenimine. The filter was washed with 3 ml of wash buffer (50 mM Tris pH 7.5, 5 mM MnCl2, 150 mM NaCl) three times and its radioactivity was determined by gamma counter. The activation of phospholipase C by NK1R may also be measured in CHO cells expressing the human NK1R by determining the accumulation of inositol monophosphate which is a degradation product of IP3. CHO cells are seeded in 12-well plate at 250,000 cells per well. After incubating in CHO media for 4 days, cells are loaded with 0.025 uCi/ml of ^3H-myoinositol by overnight incubation. The extracellular radioactivity is removed by washing with phosphate buffered saline. LiCl is added to the well at final concentration of 0.1 mM with or without the test compound, and incubation is continued at 37° C. for […]. Substance P is added to the well at final concentration of 0.3 nM to activate the human NK1R. After 30 min of incubation at 37° C., the media is removed and 0.1 N HCl is added. Each well is sonicated at 4° C. and extracted with CHCl3/methanol (1:1). The aqueous phase is applied to a 1 ml Dowex AG 1X8 ion exchange column. […]

T1 sequence (P25103 whole entry): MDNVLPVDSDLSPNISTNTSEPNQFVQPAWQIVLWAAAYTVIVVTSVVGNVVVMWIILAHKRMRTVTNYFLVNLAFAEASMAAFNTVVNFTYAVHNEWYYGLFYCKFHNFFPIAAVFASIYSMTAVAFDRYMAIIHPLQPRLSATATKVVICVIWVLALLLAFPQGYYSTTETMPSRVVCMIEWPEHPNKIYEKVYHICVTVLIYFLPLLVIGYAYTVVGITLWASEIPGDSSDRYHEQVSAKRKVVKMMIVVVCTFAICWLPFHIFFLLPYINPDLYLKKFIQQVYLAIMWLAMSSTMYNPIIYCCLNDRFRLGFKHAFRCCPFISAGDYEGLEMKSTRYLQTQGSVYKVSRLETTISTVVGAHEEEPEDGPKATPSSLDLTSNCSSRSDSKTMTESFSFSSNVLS

The term IC50 denotes the concentration at which inhibition is half-maximal. The low end stands for greater potency in that assay, the high end for weaker potency in that assay. Regarding `O=C1C=C(N2C[C@@H]3CCN(C(=O)Cc4cc(C(F)(F)F)cc(C(F)(F)F)c4)[C@H](c4ccc(F)cc4)[C@H]3C2)CC1` (racemic) [Example 1, 3-[(3aSR,4RS,7aSR)-5-{[3,5-bis(trifluoromethyl)phenyl]acetyl}-4-(4-fluorophenyl)octahydro-2H-pyrrolo[3,4-c]pyridin-2-yl]cyclcopent-2-en-1-one], the IC50 amounted to 1.7 nM.
Next, `CC(C(=O)N1CC[C@@H]2CN(C3=CC(=O)CC3)CC2[C@@H]1c1ccc(F)cc1)c1cc(C(F)(F)F)cc(C(F)(F)F)c1` (mixture of isomers) [Example 2, 3-[(3aSR,4RS,7aSR)-5-{2-[3,5-bis(trifluoromethyl)phenyl]propanoyl}-4-(4-fluorophenyl)octahydro-2H-pyrrolo[3,4-c]pyridin-2-yl]cyclopent-2-en-1-one]: 0.25 nM; `CC(C(=O)N1CC[C@@H]2CN(C3=CC(=O)CC3)CC2[C@@H]1c1ccc(F)cc1)c1cc(C(F)(F)F)cc(C(F)(F)F)c1` (mixture of isomers) [Example 3, 3-[(3aSR,4RS,7aSR)-5-{2-[3,5-bis(trifluoromethyl)phenyl]propanoyl}-4-(4-fluorophenyl)octahydro-2H-pyrrolo[3,4-c]pyridin-2-yl]cyclopent-2-en-1-one]: 12 nM; `CC(C)(C(=O)N1CC[C@@H]2CN(C3=CC(=O)CC3)C[C@H]2[C@@H]1c1ccc(F)cc1)c1cc(C(F)(F)F)cc(C(F)(F)F)c1` (racemic) [Example 4]: 0.17 nM.
For `O=C(CN1CCOC1=O)N1C[C@H]2CCN(C(=O)Cc3cc(C(F)(F)F)cc(C(F)(F)F)c3)[C@@H](c3ccc(F)cc3)[C@@H]2C1` (racemic) [Example 5, 3-{2-[(3aSR,4RS,7aSR)-5-{[3,5-bis(trifluoromethyl)phenyl]acetyl}-4-(4-fluorophenyl)octahydro-2H-pyrrolo[3,4-c]pyridin-2-yl]-2-oxoethyl}-1,3-oxazolidin-2-one] the value was 3.5 nM; for `CC(c1cc(C(F)(F)F)cc(C(F)(F)F)c1)N(C)C(=O)N1CC[C@@H]2CN(C(=O)C3CCOCC3)C[C@H]2[C@@H]1c1ccc(F)cc1` (mixture of isomers) [Example 7, (3aSR,4RS,7aSR)-N-{1-[3,5-bis(trifluoromethyl)phenyl]ethyl}-4-(4-fluorophenyl)-N-methyl-2-(tetrahydro-2H-pyran-4-ylcarbonyl)octahydro-5H-pyrrolo[3,4-c]pyridine-5-carboxamide], 0.53 nM; for `CC(c1cc(C(F)(F)F)cc(C(F)(F)F)c1)N(C)C(=O)N1CC[C@@H]2CN(C3=CC(=O)CC3)CC2[C@@H]1c1ccc(F)cc1` (stereo partly drawn) [Example 6], 0.16 nM.
For `Cc1ccccc1[C@H]1[C@@H]2CN(Cc3ccccc3)C[C@H]2CCN1C(=O)N(C)[C@H](C)c1cc(C(F)(F)F)cc(C(F)(F)F)c1` [Example 8, (3aS,4R,7aS)-2-benzyl-N-{(1R)-1-[3,5-bis(trifluoromethyl)phenyl]ethyl}-N-methyl-4-(2-methylphenyl)octahydro-5H-pyrrolo[3,4-c]pyridine-5-carboxamide] the value was 1.19 nM; for `Cc1ccccc1[C@H]1[C@@H]2CNC[C@H]2CCN1C(=O)N(C)[C@H](C)c1cc(C(F)(F)F)cc(C(F)(F)F)c1` [Example 9, (3aS,4R,7aS)-N-{(1R)-1-[3,5-bis(trifluoromethyl)phenyl]ethyl}-N-methyl-4-(2-methylphenyl)octahydro-5H-pyrrolo[3,4-c]pyridine-5-carboxamide], 0.041 nM; for `Cc1ccccc1[C@H]1[C@@H]2CN(C3=CC(=O)CC3)C[C@H]2CCN1C(=O)N(C)[C@H](C)c1cc(C(F)(F)F)cc(C(F)(F)F)c1` [Example 10, (3aS,4R,7aS)-N-{(1R)-1-[3,5-bis(trifluoromethyl)phenyl]ethyl}-N-methyl-4-(2-methylphenyl)-2-(3-oxocyclopent-1-en-1-yl)octahydro-5H-pyrrolo[3,4-c]-pyridine-5-carboxamide], 0.066 nM.
In turn, `Cc1ccccc1[C@H]1[C@@H]2CN(C(N)=O)C[C@H]2CCN1C(=O)N(C)[C@H](C)c1cc(C(F)(F)F)cc(C(F)(F)F)c1` [Example 11, (3aS,4R,7aS)-N^5-{(1R)-1-[3,5-bis(trifluoromethyl)phenyl]ethyl}-N^5-methyl-4-(2-methylphenyl)tetrahydro-1H-pyrrolo[3,4-c]pyridine-2,5(3H,4H)-dicarboxamide] displayed an IC50 of 0.06 nM.
Next, `Cc1ccccc1[C@H]1C2CN(C3=NC(=O)CO3)C[C@H]2CCN1C(=O)N(C)[C@H](C)c1cc(C(F)(F)F)cc(C(F)(F)F)c1` (stereo partly drawn) [Example 12]: 0.043 nM; `Cc1ccccc1[C@H]1C2CN(C3=CC(=O)OC3)C[C@H]2CCN1C(=O)N(C)[C@H](C)c1cc(C(F)(F)F)cc(C(F)(F)F)c1` (stereo partly drawn) [Example 13, (3aS,4R aS)-N-{(1R)-1-[3,5-bis(trifluoromethyl)phenyl]ethyl}-N-methyl-4-(2-methylphenyl)-2-(5-oxo-2,5-dihydrofuran-3-yl)octahydro-5H-pyrrolo[3,4-c]pyridine-5-carboxamide]: 0.083 nM; `Cc1ccccc1[C@H]1[C@@H]2CN(C(C)C)C[C@H]2CCN1C(=O)N(C)[C@H](C)c1cc(C(F)(F)F)cc(C(F)(F)F)c1` [Example 14, (3aS,4R,7aS)-N-{(1R)-1-[3,5-bis(trifluoromethyl)phenyl]ethyl}-2-isopropyl-N-methyl-4-(2-methylphenyl)octahydro-5H-pyrrolo[3,4-c]pyridine-5-carboxamide]: 0.044 nM.
For `Cc1ccccc1[C@H]1[C@@H]2CN(CC(N)=O)C[C@H]2CCN1C(=O)N(C)[C@H](C)c1cc(C(F)(F)F)cc(C(F)(F)F)c1` [Example 15, (3aS,4R,7aS)-2-(2-amino-2-oxoethyl)-N-{(1R)-1-[3,5-bis(trifluoromethyl)phenyl]ethyl}-N-methyl-4-(2-methylphenyl)octahydro-5H-pyrrolo[3,4-c]pyridine-5-carboxamide] the value was 0.071 nM; for `Cc1ccccc1[C@H]1[C@@H]2CN(CC(=O)O)C[C@H]2CCN1C(=O)N(C)[C@H](C)c1cc(C(F)(F)F)cc(C(F)(F)F)c1` [Example 16, [(3aS,4R,7aS)-5-{[{(1R)-1-[3,5-bis(trifluoromethyl)phenyl]ethyl}(methyl)amino]carbonyl}-4-(2-methylphenyl)octahydro-2H-pyrrolo[3,4-c]pyridin-2-yl]acetic acid], 0.152 nM.
Next, `Cc1ccccc1[C@H]1[C@@H]2CN(C(=O)[C@H](C)O)C[C@H]2CCN1C(=O)N(C)[C@H](C)c1cc(C(F)(F)F)cc(C(F)(F)F)c1` [Example 17, (3aS,4R,7aS)-N-{(1R)-1-[3,5-bis(trifluoromethyl)phenyl]ethyl}-2-[(2S)-2-hydroxypropanoyl]-N-methyl-4-(2-methylphenyl)octahydro-5H-pyrrolo[3,4-c]pyridine-5-carboxamide]: 0.081 nM; `CC(=O)N1CC2[C@H](CCN(C(=O)N(C)[C@H](C)c3cc(C(F)(F)F)cc(C(F)(F)F)c3)[C@H]2c2ccccc2C)C1` (stereo partly drawn) [Example 18, (3aS,4R,7aS)-2-acetyl-N{(1R)-1-[3,5-bis(trifluoromethyl)phenyl]ethyl}-N-methyl-4-(2-methylphenyl)octahydro-5H-pyrrolo[3,4-c]pyridine-5-carboxamide]: 0.068 nM.
